Laboratory results as given in US5593970A, “Heterocyclic anthracycline analogs” (priority 1994, dated 1997).
Structures can show the parent of a compound that is named as a salt. Where two headings read alike, the source gives them in different places.

Experiments:
Assay in all cases: Microculture tetrazolium assay
Type in all cases: cell-based
SKOV3 = tested on: SKOV3
SKVLB = details: for IC50: SKVLB; for VLB/OV3: IC50 ratio SKVLB/SKOV3
T47D = tested on: T47D
LOX = tested on: LOX
HT29 = tested on: HT29
[1] = Homo sapiens, SK-OV-3, SKOV3, read-out: IC50
[2] = Homo sapiens, HT-29, HT29, read-out: IC50

Row | SMILES | IC50 (SKOV3; [1]) | IC50 (SKVLB; read-out: IC50) | IC50 (T47D; Homo sapiens, read-out: IC50) | IC50 (LOX; read-out: IC50) | IC50 (HT29; [2]) | VLB/OV3 (SKVLB) | also measured
1 | CC(=O)C1Cc2c(O)c3c(c(O)c2C(O[C@H]2C[C@H](N=[N+]=[N-])[C@H](I)[C@H](C)O2)O1)C(=O)c1ccccc1C3=O (some centres unmarked) [BCH-1156] | 26.2 µM | 100 µM | 100 µM | 100 µM | 36.2 µM | – | –
2 | CC(=O)C1CC2=C(C(=O)c3cc4ccccc4c(O)c3C2=O)C(OC2CC(N=[N+]=[N-])C(I)C(C)O2)O1 (centres unmarked) [BCH-1157] | 14.7 µM | – | 37.6 µM | > 100 µM | 13 µM | – | VLB/OV3 (SKVLB; listed as BCH1157): 1.43; IC50 (SKVLB; listed as BCH1157, read-out: IC50): 21 µM
3 | CC(=O)C1CC2=C(C(=O)c3cc4ccccc4c(O)c3C2=O)C(OC2CC(N=[N+]=[N-])C(I)C(C)O2)O1 (centres unmarked) [BCH-1158] | – | – | – | > 100 µM | – | – | IC50 (SKOV3; SKOV3, read-out: IC50): 8.35 µM; VLB/OV3 (SKVLB; listed as BCH1158): 0.74; IC50 (SKVLB; listed as BCH1158, read-out: IC50): 6.2 µM; IC50 (T47D; read-out: IC50): 25.7 µM; IC50 (HT29; HT29, read-out: IC50): 8.25 µM
4 | CC(=O)O[C@@H]1[C@H](C)O[C@@H](O[C@H]2O[C@H](C(C)=O)CC3=C2C(=O)c2cc4ccccc4c(O)c2C3=O)C[C@@H]1OC(C)=O [BCH-1165, (1'S,1R,3S)-methyl-(6-hydroxy-1-(2',3',4',6'-tetradeoxy-3',4'-diacetyl-L-lyxohexopyranose)-5,12-dioxo-3,4,5,12-tetrahydroanthraceno-[2,3-c]pyran-3-yl) ketone] | 30.5 µM | 42.1 µM | 31.5 µM | 23.6 µM | 10 µM | 1.38 | –
5 | CC(=O)O[C@@H]1[C@H](C)O[C@@H](O[C@@H]2O[C@@H](C(C)=O)CC3=C2C(=O)c2cc4ccccc4c(O)c2C3=O)C[C@@H]1OC(C)=O [BCH-1166, (1'S,1S,3R)-methyl-(6-hydroxy-1-(2',3',4',6'-tetradeoxy-3',4'-diacetyl-L-lyxohexopyranose)-5,12-dioxo-3,4,5,12-tetrahydroanthraceno-[2,3-c]pyran-3-yl) ketone] | 24.4 µM | 50.8 µM | 31.4 µM | 30.5 µM | 12.5 µM | 2.08 | –
6 | CC(=O)C1CC2=C(C(=O)c3cc4ccccc4c(O)c3C2=O)C(O)S1 (stereo not drawn) [BCH-1167, Trans-3-aceto-1,6-hydroxy-1,2,3,4,5,12-hexahydro-2-(sulfur)naphthacene-5,12-dione and cis-3-aceto-1,6-hydroxy-1,2,3,4,5,12-hexahydro-2-(sulfur)naphthacene-5,12-dione] | > 100 µM | > 100 µM | > 100 µM | > 100 µM | > 100 µM | – | –
7 | C=CC1CC2=C(C(=O)c3cc4ccccc4c(O)c3C2=O)C(O[C@H]2C[C@H](NC(=O)C(F)(F)F)[C@H](O)[C@H](C)O2)O1 (some centres unmarked) [BCH-1168] | 88 µM | 94.2 µM | 84.4 µM | 100 µM | 100 µM | 1.07 | –
8 | C[C@@H]1O[C@@H](O[C@H]2O[C@H](C(=O)CO)CC3=C2C(=O)c2cc4ccccc4c(O)c2C3=O)C[C@H](NC(=O)C(F)(F)F)[C@@H]1O [BCH-1175, (1', S,1R,3S)-1,2,3,4,5,12-hexahydro-6-hydroxy-3-hydroxy-aceto-1-N-trifluoroacetyl-L-daunosamine-(2-oxo) naphthacene-5, 12-dione] | > 100 µM | > 100 µM | > 100 µM | > 100 µM | > 100 µM | – | –
9 | CC(=O)OCC1([C@@H]2CC3=C(C(=O)c4c(cc5ccccc5c4OC(C)=O)C3=O)[C@@H](O[C@H]3C[C@H](NC(=O)C(F)(F)F)[C@H](O)[C@H](C)O3)O2)OCCCO1 [BCH-1178] | 6.93 µM | 12.8 µM | 7.06 µM | 12.3 µM | – | 1.85 | IC50 (HT29; Homo sapiens, HT-29, HT29): 5.64 µM
10 | CC(=O)OCC1(C2CC3=C(C(=O)c4c(cc5ccccc5c4OC(C)=O)C3=O)C(O[C@H]3C[C@H](NC(=O)C(F)(F)F)[C@H](O)[C@H](C)O3)O2)OCCCO1 (some centres unmarked) [BCH-1179] | 5.25 µM | 8.31 µM | 4.9 µM | 10.9 µM | 4.03 µM | 1.58 | –
11 | C[C@@H]1O[C@@H](O[C@@H]2O[C@@H](C(=O)CO)CC3=C2C(=O)c2cc4ccccc4c(O)c2C3=O)C[C@H](NC(=O)C(F)(F)F)[C@@H]1O [BCH-1182, (1 'S,1S,3R)-1,2,3,4,5,12-hexahydro-6-hydroxy-3-hydroxy-aceto-1-N-trifluoroacetyl-L-daunosamine-(2-oxo) naphthacene-5,12-dione] | 23.6 µM | 73.7 µM | 28.3 µM | 1.98 µM | 25.4 µM | 3.12 | –
12 | C=CC1CC2=C(C(=O)c3cc4ccccc4c(O)c3C2=O)C(O[C@H]2C[C@H](N)[C@H](O)[C@H](C)O2)O1 (some centres unmarked) [BCH-1611] | 1.89 µM | 7.32 µM | 2.16 µM | 4.3 µM | 2.81 µM | 3.87 | –
13 | CC[C@@H]1CC2=C(C(=O)c3cc4ccccc4c(O)c3C2=O)[C@@H](O[C@H]2C[C@H](N)[C@H](O)[C@H](C)O2)O1 [BCH-1614, (1'S,1R,3R)-5,12-dioxo-3-ethyl-6-hydroxy-1-(2',3',6'-trideoxy-3'-amino-4'-hydroxy-L-lyxohexopyranose)-3,4,5,12-tetrahydroanthraceno[2,3-c]pyran hydrochloride] | – | – | – | – | – | 1.64 | IC50 (SKOV3; Homo sapiens, SK-OV-3, SKOV3): 1.02 µM; IC50 (SKVLB): 1.67 µM; IC50 (T47D; Homo sapiens): 0.742 µM; IC50 (LOX): 1.09 µM; IC50 (HT29; Homo sapiens, HT-29, HT29): 3.58 µM
14 | CC(=O)[C@@H]1CC2=C(C(=O)c3cc4ccccc4c(O)c3C2=O)[C@@H](O[C@H]2C[C@H](NC(=O)C(F)(F)F)[C@H](I)[C@H](C)O2)O1 [BCH-1617] | 2.15 µM | 2.96 µM | 2.43 µM | 3.04 µM | 1.2 µM | 1.38 | –
15 | CC(=O)[C@H]1CC2=C(C(=O)c3cc4ccccc4c(O)c3C2=O)[C@H](O[C@H]2C[C@H](NC(=O)C(F)(F)F)[C@H](I)[C@H](C)O2)O1 [BCH-1618] | 3.26 µM | 3.21 µM | – | 3.75 µM | 3.63 µM | .098 | IC50 (T47D; Homo sapiens): 3.66 µM
16 | CC(=O)Nc1nc([C@@H]2CC3=C(C(=O)c4cc5ccccc5c(O)c4C3=O)[C@@H](O[C@H]3C[C@H](NC(=O)C(F)(F)F)[C@H](O)[C@H](C)O3)O2)cs1 [BCH-1623, (1'S,1R,3S)-6-hydroxy-1-(2',3',6'-trideoxy-3'-trifluoroacetamido-L-lyxohexopyranose)-3-(2-aza-3-acetamido-thienyl)-5,12-dioxo-3,4,5,12-tetrahydro-anthraceno-[2,3-c]-pyran] | 49.5 µM | 90.2 µM | 42.8 µM | 44.2 µM | 32.1 µM | 1.82 | –
17 | CC(=O)[C@@H]1Cc2c(O)c3c(c(O)c2[C@@H](O[C@H]2C[C@H](O)[C@H](O)[C@H](C)O2)O1)C(=O)c1ccccc1C3=O [BCH-1624] | 85 µM | 100 µM | 100 µM | 100 µM | 100 µM | – | –
18 | CC(=O)[C@H]1Cc2c(O)c3c(c(O)c2[C@H](O[C@H]2C[C@H](O)[C@H](O)[C@H](C)O2)O1)C(=O)c1ccccc1C3=O [BCH-1625] | 5.1 µM | 45 µM | 34 µM | 16 µM | 61 µM | 8.8 | –
19 | CC(=O)O[C@@H]1[C@H](C)O[C@@H](OC2OC(C(=O)CO)CC3=C2C(=O)c2cc4ccccc4c(O)c2C3=O)C[C@@H]1OC(C)=O (some centres unmarked) [BCH-1626] | 2.32 µM | 7.66 µM | 5.39 µM | 2.99 µM | 5.18 µM | 3.30 | –
20 | CC(=O)C1CC2=C(C(=O)c3cc4ccccc4c(O)c3C2=O)C(OCCNC(=O)OC(C)(C)C)S1 (centres unmarked) [BCH-1627] | 7.1 µM | 14 µM | 7.1 µM | 5 µM | 11 µM | 2.0 | –
21 | CC(=O)C1CC2=C(C(=O)c3cc4ccccc4c(O)c3C2=O)C(OCCN)S1 (centres unmarked) [BCH-1628] | 2.71 µM | – | 2.89 µM | 3.52 µM | 3.43 µM | 2.18 | IC50 (SKVLB): 5.92 µM
22 | CC[C@H]1CC2=C(C(=O)c3cc4ccccc4c(O)c3C2=O)[C@H](O[C@H]2C[C@H](O)[C@H](O)[C@H](C)O2)O1 [BCH-1629] | 6.7 µM | – | 9 µM | 7.4 µM | 22 µM | 2.8 | IC50 (SKVLB): 19 µM
23 | CC[C@@H]1CC2=C(C(=O)c3cc4ccccc4c(O)c3C2=O)[C@@H](O[C@H]2C[C@H](O)[C@H](O)[C@H](C)O2)O1 [BCH-1630] | 12 µM | 31 µM | 18 µM | 8.5 µM | 66 µM | 2.6 | –
24 | CC[C@H]1Cc2c(O)c3c(c(O)c2[C@H](O[C@H]2C[C@H](N)[C@H](O)[C@H](C)O2)O1)C(=O)c1ccccc1C3=O [BCH-1633] | 0.245 µM | 0.47 µM | 0.735 µM | 0.201 µM | 0.0995 µM | 1.92 | –
25 | CC(=O)C1CC2=C(C(=O)c3cc4ccccc4c(O)c3C2=O)C(O[C@H]2C[C@H](NC(=O)C(F)(F)F)[C@H](O)[C@H](C)O2)S1 (some centres unmarked) [BCH-1635] | 1.99 µM | 3.18 µM | 3.11 µM | 1 µM | 0.876 µM | 1.60 | –
26 | CC(=O)C1CC2=C(C(=O)c3cc4ccccc4c(O)c3C2=O)C(OC[C@H]2COC(C)(C)O2)S1 (some centres unmarked) [BCH-1636] | 2.65 µM | 4.52 µM | 2.97 µM | 1.23 µM | 2.53 µM | 1.71 | –
